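Five concentrations, 48 hours, 96-well plates. GI50 = concentration required for 50% inhibition of growth.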 Active and inactive are the calls of the source. Cut-off read from the data, not from the text of the source: active = GI50 up to about 1.1 µM and inactive = higher. Square brackets hold non-standard residues; d marks the D form. Peptide text beside a SMILES is read from it. Ac5c = NC1(C(=O)O)CCCC1
What was measured:
Assay in all cases: NCI tumour cell line growth inhibition, 48 h
MDA-MB-435 = tested on: MDA-MB-435
SK-MEL-2 = tested on: SK-MEL-2
SK-MEL-28 = tested on: SK-MEL-28
HOP-92 = tested on: HOP-92
MDA-N = tested on: MDA-N
BT-549 = tested on: BT-549
NCI-H226 = tested on: NCI-H226
SW-620 = tested on: SW-620
SR = tested on: SR
SK-MEL-5 = tested on: SK-MEL-5
EKVX = tested on: EKVX
Hs-578T = tested on: Hs-578T
HT-29 = tested on: HT-29
M14 = tested on: M14
T47D = tested on: T47D
MCF7 = tested on: MCF7
NCI-H460 = tested on: NCI-H460
HL-60 = tested on: HL-60
MOLT-4 = tested on: MOLT-4

SMILES | GI50 (MDA-MB-435) | GI50 (SK-MEL-2) | GI50 (SK-MEL-28) | GI50 (HOP-92) | GI50 (MDA-N) | GI50 (BT-549) | GI50 (NCI-H226) | GI50 (SW-620) | GI50 (SR) | GI50 (SK-MEL-5) | GI50 (EKVX) | GI50 (Hs-578T) | GI50 (HT-29) | GI50 (M14) | GI50 (T47D) | GI50 (MCF7) | GI50 (NCI-H460) | GI50 (HL-60) | GI50 (MOLT-4)
C=CCSc1nc2ccccc2c(=O)n1Cc1ccco1 | > 100 µM (inactive) | > 100 µM (inactive) | > 100 µM (inactive) | 86.3 µM (inactive) | > 100 µM (inactive) | > 100 µM (inactive) | > 100 µM (inactive) | > 100 µM (inactive) | 47 µM (inactive) | 45 µM (inactive) | > 100 µM (inactive) | > 100 µM (inactive) | 50.1 µM (inactive) | > 100 µM (inactive) | 29.1 µM (inactive) | 52.2 µM (inactive) | 73.5 µM (inactive) | – | –
COc1ccc2ccccc2c1C1NC(=O)c2ccccc2N1 (centres undefined) | 0.234 µM (active) | 2.08 µM (inactive) | 0.802 µM (active) | 14.8 µM (inactive) | 0.173 µM (active) | > 100 µM (inactive) | 1.57 µM (inactive) | 0.536 µM (active) | – | 0.384 µM (active) | 2.51 µM (inactive) | 1.7 µM (inactive) | 0.873 µM (active) | 0.951 µM (active) | 12.1 µM (inactive) | 0.78 µM (active) | 1.26 µM (inactive) | 0.0518 µM (active) | 0.826 µM (active)
COC(=O)C1(O)C(c2ccccc2)=NC2(C)CCCC21 (centres undefined) | > 100 µM (inactive) | > 100 µM (inactive) | > 100 µM (inactive) | > 100 µM (inactive) | > 100 µM (inactive) | > 100 µM (inactive) | > 100 µM (inactive) | > 100 µM (inactive) | > 100 µM (inactive) | > 100 µM (inactive) | – | > 100 µM (inactive) | > 100 µM (inactive) | > 100 µM (inactive) | > 100 µM (inactive) | – | > 100 µM (inactive) | – | > 100 µM (inactive)
CCCCSC1=N/C(=C\c2ccc(N(C)C)cc2)C(=O)N1 | 28.6 µM (inactive) | – | 61.9 µM (inactive) | 27.3 µM (inactive) | 33.6 µM (inactive) | > 100 µM (inactive) | 18 µM (inactive) | 48.2 µM (inactive) | – | 50.5 µM (inactive) | 19.1 µM (inactive) | 25.2 µM (inactive) | 11.9 µM (inactive) | 38.9 µM (inactive) | 18.7 µM (inactive) | 30.5 µM (inactive) | 20.8 µM (inactive) | 82.8 µM (inactive) | 57.5 µM (inactive)
CCOC(=O)NNC(=O)NCc1ccccc1CNC(=O)NNC(=O)OCC | > 100 µM (inactive) | > 100 µM (inactive) | > 100 µM (inactive) | – | > 100 µM (inactive) | > 100 µM (inactive) | > 100 µM (inactive) | > 100 µM (inactive) | > 100 µM (inactive) | > 100 µM (inactive) | > 100 µM (inactive) | > 100 µM (inactive) | > 100 µM (inactive) | > 100 µM (inactive) | > 100 µM (inactive) | > 100 µM (inactive) | > 100 µM (inactive) | > 100 µM (inactive) | > 100 µM (inactive)
C(=N\c1ccc(-c2nc3ccccc3[nH]2)cc1)/c1ccc[nH]1 | 41.8 µM (inactive) | > 100 µM (inactive) | > 100 µM (inactive) | > 100 µM (inactive) | 34.2 µM (inactive) | > 100 µM (inactive) | – | 73.3 µM (inactive) | 33.1 µM (inactive) | 30.3 µM (inactive) | > 100 µM (inactive) | 4.3 µM (inactive) | 78.5 µM (inactive) | > 100 µM (inactive) | 40.3 µM (inactive) | 25.7 µM (inactive) | – | 1.91 µM (inactive) | 28.8 µM (inactive)
O=C1/C(=C/c2cccc(Oc3ccccc3)c2)N=C(c2ccccc2)N1c1nc2ccc(Sc3ccccc3)cc2[nH]1 | 15.4 µM (inactive) | 17.3 µM (inactive) | 41.3 µM (inactive) | 58.7 µM (inactive) | 16 µM (inactive) | 14.9 µM (inactive) | – | 29.4 µM (inactive) | – | 24.4 µM (inactive) | 44.1 µM (inactive) | 41.3 µM (inactive) | 23.5 µM (inactive) | 24.3 µM (inactive) | 23.6 µM (inactive) | 27.7 µM (inactive) | 23 µM (inactive) | 20.4 µM (inactive) | 33.7 µM (inactive)
Fc1ccc(Nc2nnc(-c3ccccn3)s2)cc1 | > 100 µM (inactive) | > 100 µM (inactive) | > 100 µM (inactive) | > 100 µM (inactive) | > 100 µM (inactive) | > 100 µM (inactive) | – | > 100 µM (inactive) | – | > 100 µM (inactive) | > 100 µM (inactive) | > 100 µM (inactive) | > 100 µM (inactive) | > 100 µM (inactive) | 5.22 µM (inactive) | 3.47 µM (inactive) | > 100 µM (inactive) | > 100 µM (inactive) | > 100 µM (inactive)
NC(CCC(=O)O)C(=O)NC(Cc1ccc(N(CCCl)CCCl)cc1)C(=O)O (centres undefined) | > 100 µM (inactive) | > 100 µM (inactive) | > 100 µM (inactive) | > 100 µM (inactive) | > 100 µM (inactive) | > 100 µM (inactive) | > 100 µM (inactive) | > 100 µM (inactive) | – | > 100 µM (inactive) | > 100 µM (inactive) | > 100 µM (inactive) | > 100 µM (inactive) | > 100 µM (inactive) | > 100 µM (inactive) | > 100 µM (inactive) | > 100 µM (inactive) | > 100 µM (inactive) | > 100 µM (inactive)
COc1cccc(C=C2N=C(C)N(n3c(-c4ccccc4)nc4ccccc4c3=O)C2=O)c1 | > 100 µM (inactive) | – | > 100 µM (inactive) | – | > 100 µM (inactive) | > 100 µM (inactive) | > 100 µM (inactive) | > 100 µM (inactive) | 64.9 µM (inactive) | > 100 µM (inactive) | > 100 µM (inactive) | > 100 µM (inactive) | > 100 µM (inactive) | > 100 µM (inactive) | > 100 µM (inactive) | 83.4 µM (inactive) | > 100 µM (inactive) | > 100 µM (inactive) | 94.4 µM (inactive)
COC(=O)c1ccccc1CC1Cc2cccc(C)c2C1=O (centres undefined) | 23.3 µM (inactive) | 21.8 µM (inactive) | 32.5 µM (inactive) | 23.8 µM (inactive) | 36.1 µM (inactive) | 30 µM (inactive) | 27 µM (inactive) | 42.4 µM (inactive) | – | 21.4 µM (inactive) | 11.7 µM (inactive) | 38.3 µM (inactive) | 22.9 µM (inactive) | 34.8 µM (inactive) | 25.8 µM (inactive) | 26.6 µM (inactive) | 47.5 µM (inactive) | – | 19.9 µM (inactive)
CCOC(=O)c1c(-c2ccc(OC)cc2)c(C#N)c(=S)n(C2OC(CO)C(O)C(O)C2O)c1-c1ccccc1 (centres undefined) | 30.8 µM (inactive) | 31.3 µM (inactive) | 50.4 µM (inactive) | 6.85 µM (inactive) | 33.2 µM (inactive) | 37.4 µM (inactive) | – | 36.1 µM (inactive) | 54.7 µM (inactive) | 13.3 µM (inactive) | – | 25.2 µM (inactive) | 40.6 µM (inactive) | 31.9 µM (inactive) | 52.2 µM (inactive) | 39.4 µM (inactive) | 42.7 µM (inactive) | 40.8 µM (inactive) | 30.7 µM (inactive)
COC(=O)[C@@H](OC(C)=O)[C@@H](OC(C)=O)c1nnc2ccc(Cl)nn12 | > 100 µM (inactive) | > 100 µM (inactive) | 97.7 µM (inactive) | – | > 100 µM (inactive) | > 100 µM (inactive) | – | > 100 µM (inactive) | – | > 100 µM (inactive) | > 100 µM (inactive) | > 100 µM (inactive) | > 100 µM (inactive) | > 100 µM (inactive) | > 100 µM (inactive) | > 100 µM (inactive) | > 100 µM (inactive) | > 100 µM (inactive) | > 100 µM (inactive)
CC(N)(Cc1c[nH]c2ccccc12)C(=O)O (centres undefined) | > 100 µM (inactive) | > 100 µM (inactive) | > 100 µM (inactive) | – | > 100 µM (inactive) | > 100 µM (inactive) | > 100 µM (inactive) | > 100 µM (inactive) | > 100 µM (inactive) | > 100 µM (inactive) | > 100 µM (inactive) | > 100 µM (inactive) | > 100 µM (inactive) | > 100 µM (inactive) | > 100 µM (inactive) | > 100 µM (inactive) | > 100 µM (inactive) | > 100 µM (inactive) | > 100 µM (inactive)
NCC(=O)NC1(C(=O)O)CCCC1 (H-Gly-[Ac5c]-OH) | > 100 µM (inactive) | > 100 µM (inactive) | > 100 µM (inactive) | > 100 µM (inactive) | > 100 µM (inactive) | > 100 µM (inactive) | – | > 100 µM (inactive) | > 100 µM (inactive) | > 100 µM (inactive) | > 100 µM (inactive) | > 100 µM (inactive) | > 100 µM (inactive) | > 100 µM (inactive) | > 100 µM (inactive) | > 100 µM (inactive) | > 100 µM (inactive) | – | > 100 µM (inactive)
O=C(NCCN(CCNC(=O)c1cccc(O)c1O)CCNC(=O)c1cccc(O)c1O)c1cccc(O)c1O [TRENCAM] | 21.7 µM (inactive) | 33.2 µM (inactive) | 3.82 µM (inactive) | 7.53 µM (inactive) | 9.31 µM (inactive) | 23.2 µM (inactive) | 14.8 µM (inactive) | 2.4 µM (inactive) | – | 2.75 µM (inactive) | 41.4 µM (inactive) | 29.7 µM (inactive) | 5.31 µM (inactive) | 5.55 µM (inactive) | 9.73 µM (inactive) | 9.55 µM (inactive) | 4.38 µM (inactive) | 8.02 µM (inactive) | –

Reference: ChEMBL document CHEMBL1201862, “PubChem BioAssay data set” (2004)
